What was measured:
[1] = system: ATXN3 transcripts containing exon 4; experiment: ATXN3 Quantitative Splicing Assay (qPCR, E4E5 primers/probe); assay type: cell-based; settings: Homo sapiens, SK-N-MC cells, compounds for 24 h
Summary of the method: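 Exon 4-containing ATXN3 transcripts are quantified by TaqMan qPCR (E4E5 primers/probe) on cell-lysate cDNA, with total ATXN3 from the E8E9 set. Source cells: human neuroblastoma SK-N-MC, exposed for 24 h to compound at 30 μM down to 0.6 nM.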

total ATXN3 protein = experiment: ATXN3 Total Protein Assay (Mesoscale Discovery, SK-N-MC cells); assay type: cell-based, Human; settings: incubation for 48 hours, MSD assay
Summary of the method: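 Readout: MSD electrochemiluminescence immunoassay of lysates, calibrated with recombinant ATXN3 and using mouse/rabbit anti-ATXN3 antibody pair. Cells (SK-N-MC, human) were exposed for 48 h to compound doses between 30 μM and 0.6 nM.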

ATXN3-HiBiT protein = experiment: ATXN3 Total Protein Assay (Kelly-ATXN3-HiBiT luminescence); assay type: cell-based; settings: Kelly-ATXN3-HiBiT cells, 48 h after addition of compound
Summary of the method: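 Endogenous ATXN3-HiBiT protein in knock-in Kelly neuroblastoma cells measured by lytic HiBiT luminescence 48 h post-compound (added 24 h after seeding 2000 cells/well). Values are fold changes relative to DMSO, with viability from a parallel CellTiter-Glo plate.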

SMILES | IC50 [1] | IC50 (total ATXN3 protein) | EC50 (ATXN3-HiBiT protein)
C=C(C)c1c(C[C@H](C)N)oc2c(NCc3cccs3)cc(Cl)nc12 [Compound 252, 2-[(S)-2-aminopropyl]-5-chloro-3-isopropenyl-7-thenylamino-1-oxa-4-azaindene] | 10 to 40 µM | 5 to 10 µM | 0.501 to 5 µM
C/C=C/c1c(C[C@H](C)N)oc2c(NCc3cccs3)cc(Cl)nc12 [Compound 253, 3-[(E)-1-propenyl]-2-[(S)-2-aminopropyl]-5-chloro-7-thenylamino-1-oxa-4-azaindene] | 0.501 to 5 µM | 0.501 to 5 µM | 10 to 40 µM
C/C=C\c1c(C[C@H](C)N)oc2c(NCc3cccs3)cc(Cl)nc12 [Compound 254, 2-[(S)-2-aminopropyl]-3-[(Z)-1-propenyl]-5-chloro-7-thenylamino-1-oxa-4-azaindene] | 0.501 to 5 µM | 0.501 to 5 µM | 0.501 to 5 µM
C[C@H](N)Cc1oc2c(NCc3cccs3)cc(Cl)nc2c1-c1cccs1 [Compound 256, 2-[(S)-2-aminopropyl]-5-chloro-7-thenylamino-3-(2-thienyl)-1-oxa-4-azaindene] | 10 to 40 µM | 5 to 10 µM | 10 to 40 µM
C[C@H](N)Cc1oc2c(NCc3cccs3)cc(Cl)nc2c1-c1nccs1 [Compound 257, 2-[(S)-2-aminopropyl]-5-chloro-7-thenylamino-3-(1,3-thiazol-2-yl)-1-oxa-4-azaindene] | 10 to 40 µM | 10 to 40 µM | 10 to 40 µM
C[C@H](N)Cc1oc2c(NCc3cccs3)cc(Cl)nc2c1-c1ccsc1 [Compound 260, 2-[(S)-2-aminopropyl]-5-chloro-7-thenylamino-3-(3-thienyl)-1-oxa-4-azaindene] | 10 to 40 µM | 0.501 to 5 µM | 10 to 40 µM
C[C@H](N)Cc1oc2c(NCc3cccs3)cc(Cl)nc2c1-c1ncco1 [Compound 262, 2-[(S)-2-aminopropyl]-5-chloro-3-(1,3-oxazol-2-yl)-7-thenylamino-1-oxa-4-azaindene] | 0.101 to 0.5 µM | 0.101 to 0.5 µM | 0.101 to 0.5 µM
C[C@H](N)Cc1oc2c(NCc3cccs3)cc(Cl)nc2c1-c1cscn1 [Compound 263, 2-[(S)-2-aminopropyl]-5-chloro-7-thenylamino-3-(1,3-thiazol-4-yl)-1-oxa-4-azaindene] | 0.501 to 5 µM | 0.501 to 5 µM | 0.501 to 5 µM
C[C@H](N)Cc1oc2c(NCc3cccs3)c(F)c(Cl)nc2c1Br [Compound 275, 2-[(S)-2-aminopropyl]-3-bromo-5-chloro-6-fluoro-7-thenylamino-1-oxa-4-azaindene] | 0.501 to 5 µM | 0.501 to 5 µM | 0.501 to 5 µM
C#Cc1c(C[C@H](C)N)oc2c(NCc3cccs3)c(F)c(Cl)nc12 [Compound 276, 2-[(S)-2-aminopropyl]-5-chloro-3-ethynyl-6-fluoro-7-thenylamino-1-oxa-4-azaindene] | 0.501 to 5 µM | 0.501 to 5 µM | 0.501 to 5 µM
C[C@H](F)[C@H](N)Cc1oc2c(NCc3cccs3)c(F)c(Cl)nc2c1Br [Compound 277, 2-[(2R,3S)-2-amino-3-fluorobutyl]-3-bromo-5-chloro-6-fluoro-7-thenylamino-1-oxa-4-azaindene] | 0.501 to 5 µM | 0.501 to 5 µM | 0.501 to 5 µM
[2H][C@](N)(COC)Cc1oc2c(NCc3cccs3)cc(Cl)nc2c1Br [Compound 285, 2-[(R)-2-amino-3-methoxy(2-^2H)propyl]-3-bromo-5-chloro-7-thenylamino-1-oxa-4-azaindene] | 0.101 to 0.5 µM | 1e-05 to 0.1 µM | 1e-05 to 0.1 µM
C[C@H](N)Cc1oc2c(NCc3cccs3)cc(C(N)=O)nc2c1Br [Compound 288, 2-[(S)-2-aminopropyl]-3-bromo-7-thenylamino-1-oxa-4-aza-5-indenecarboxamide] | 10 to 40 µM | 10 to 40 µM | 10 to 40 µM
CC#C[C@@H](Cc1oc2c(NCc3cccs3)cc(Cl)nc2c1Br)NC [Compound 295, 3-bromo-5-chloro-2-[(2R)-2-(methylamino)pent-3-yn-1-yl]-N-(thiophen-2-ylmethyl)furo[3,2-b]pyridin-7-amine] | 0.501 to 5 µM | 0.501 to 5 µM | 0.101 to 0.5 µM
[2H]C([2H])(c1oc2c(NCc3cccs3)cc(Cl)nc2c1Br)[C@@H](N)COC [Compound 304, 2-[(R)-2-amino-3-methoxy(1,1- ^2H2)propyl]-3-bromo-5-chloro-7-thenylamino-1-oxa-4-azaindene] | 1e-05 to 0.1 µM | 1e-05 to 0.1 µM | 1e-05 to 0.1 µM
C[C@H](N)Cc1oc2c(NCc3cccs3)cc(Cl)nc2c1-c1cnco1 [Compound 310] | 0.101 to 0.5 µM | 0.101 to 0.5 µM | 0.101 to 0.5 µM

SMILES | IC50 [1] | IC50 (total ATXN3 protein) | EC50 (ATXN3-HiBiT protein)
C[C@H](N)Cc1oc2c(NCc3cccs3)cc(Cl)nc2c1-c1ccco1 [Compound 311, 2-[(S)-2-aminopropyl]-5-chloro-3-(2-furyl)-7-thenylamino-1-oxa-4-azaindene] | 0.501 to 5 µM | 5 to 10 µM | 0.501 to 5 µM
C[C@H](F)[C@H](N)Cc1oc2c(NCc3cccs3)cc(Cl)nc2c1-c1ncco1 [Compound 312, 2-[(2R,3S)-2-amino-3-fluorobutyl]-5-chloro-3-(1,3-oxazol-2-yl)-7-thenylamino-1-oxa-4-azaindene] | 0.101 to 0.5 µM | 0.101 to 0.5 µM | 1e-05 to 0.1 µM
C[C@H](N)Cc1oc2c(NCc3cccs3)cc(Cl)nc2c1-c1ncc[nH]1 [Compound 313, 2-[(2S)-2-aminopropyl]-5-chloro-3-(1H-imidazol-2-yl)-N-(thiophen-2-ylmethyl)furo[3,2-b]pyridin-7-amine] | 10 to 40 µM | 5 to 10 µM | 10 to 40 µM
C[C@H](N)Cc1oc2c(NCc3cccs3)cc(Cl)nc2c1-c1nccn1C [Compound 314, 2-[(S)-2-aminopropyl]-5-chloro-3-(1-methyl-2-imidazolyl)-7-thenylamino-1-oxa-4-azaindene] | 10 to 40 µM | 10 to 40 µM | 10 to 40 µM
C[C@H](N)Cc1oc2c(NCc3cccs3)cc(Cl)nc2c1-c1ccnn1C [Compound 316, 2-[(S)-2-aminopropyl]-5-chloro-3-(1-methyl-5-pyrazolyl)-7-thenylamino-1-oxa-4-azaindene] | 10 to 40 µM | 10 to 40 µM | 10 to 40 µM
C[C@H](N)Cc1oc2c(NCc3cccs3)cc(Cl)nc2c1-c1ccn(C)n1 [Compound 317, 2-[(S)-2-aminopropyl]-5-chloro-3-(1-methyl-3-pyrazolyl)-7-thenylamino-1-oxa-4-azaindene] | 10 to 40 µM | 10 to 40 µM | 0.501 to 5 µM
C[C@H](N)Cc1oc2c(NCc3cccs3)cc(Cl)nc2c1-c1ccn[nH]1 [Compound 319, 2-[(S)-2-aminopropyl]-5-chloro-3-(5-pyrazolyl)-7-thenylamino-1-oxa-4-azaindene] | 0.501 to 5 µM | 0.501 to 5 µM | 0.501 to 5 µM
Cc1coc(-c2c(C[C@H](C)N)oc3c(NCc4cccs4)cc(Cl)nc23)n1 [Compound 321, 2-[(S)-2-aminopropyl]-5-chloro-3-(4-methyl-1,3-oxazol-2-yl)-7-thenylamino-1-oxa-4-azaindene] | 0.501 to 5 µM | 0.501 to 5 µM | 0.501 to 5 µM
Cc1cnc(-c2c(C[C@H](C)N)oc3c(NCc4cccs4)cc(Cl)nc23)o1 [Compound 322, 2-[(S)-2-aminopropyl]-5-chloro-3-(5-methyl-1,3-oxazol-2-yl)-7-thenylamino-1-oxa-4-azaindene] | 0.501 to 5 µM | 0.501 to 5 µM | 0.501 to 5 µM
C[C@H](N)Cc1oc2c(NCc3cccs3)cc(Cl)nc2c1-c1ccoc1 [Compound 328, 2-[(S)-2-aminopropyl]-5-chloro-3-(3-furyl)-7-thenylamino-1-oxa-4-azaindene] | 10 to 40 µM | 10 to 40 µM | 10 to 40 µM
C[C@H](F)[C@H](N)Cc1oc2c(NCc3cccs3)cc(Cl)nc2c1-c1ccco1 [Compound 331, 2-[(2R,3S)-2-amino-3-fluorobutyl]-5-chloro-3-(2-furyl)-7-thenylamino-1-oxa-4-azaindene] | 0.501 to 5 µM | 0.501 to 5 µM | 0.501 to 5 µM
C[C@H](F)[C@H](N)Cc1oc2c(NCc3cccs3)cc(Cl)nc2c1-c1ccoc1 [Compound 332, 2-[(2R,3S)-2-amino-3-fluorobutyl]-5-chloro-3-(3-furyl)-7-thenylamino-1-oxa-4-azaindene] | 0.501 to 5 µM | 0.501 to 5 µM | 0.501 to 5 µM
C[C@H](F)[C@H](N)Cc1oc2c(NCc3cccs3)cc(Cl)nc2c1-c1ccn(C)n1 [Compound 333, 2-[(2R,3S)-2-amino-3-fluorobutyl]-5-chloro-3-(1-methyl-3-pyrazolyl)-7-thenylamino-1-oxa-4-azaindene] | 0.501 to 5 µM | 0.501 to 5 µM | 5 to 10 µM
C[C@H](F)[C@H](N)Cc1oc2c(NCc3cccs3)cc(Cl)nc2c1-c1ccnn1C [Compound 334, 2-[(2R,3S)-2-amino-3-fluorobutyl]-5-chloro-3-(1-methyl-5-pyrazolyl)-7-thenylamino-1-oxa-4-azaindene] | 10 to 40 µM | 10 to 40 µM | 10 to 40 µM
C[C@H](N)Cc1oc2c(NCc3ccc(F)cc3)cc(Cl)nc2c1Br [Compound 338, 2-[(S)-2-aminopropyl]-3-bromo-5-chloro-7-{[(p-fluorophenyl)methyl]amino}-1-oxa-4-azaindene] | 0.501 to 5 µM | 0.501 to 5 µM | 0.501 to 5 µM
C[C@H](N)Cc1oc2c(NCc3ccccc3F)cc(Cl)nc2c1Br [Compound 340, 2-[(S)-2-aminopropyl]-3-bromo-5-chloro-7-{[(o-fluorophenyl)methyl]amino}-1-oxa-4-azaindene] | 0.501 to 5 µM | 0.501 to 5 µM | 0.501 to 5 µM

— patent publication US20260001889A1, “COMPOSITIONS USEFUL FOR MODULATING SPLICING” (Skyhawk Therapeutics, Inc., priority 2022, published 2026)
